The assay has as its target SMYD3 (Homo sapiens (Human), UniProt Q9H7B4). Nature of the assay: SMYD3 biochemical assay (SPA, 3H-SAM methylation of MEKK2 protein substrate). The settings on record: read-out: SMYD3 Biochem IC50 (μM)*. From the text: S-adenosylmethionine (SAM), S-adenosylhomocysteine (SAH), Tris, Tween20, dimethylsulfoxide (DMSO), bovine skin gelatin (BSG), and Tris(2-carboxyethyl)phosphine hydrochloride solution (TCEP) were purchased from Sigma-Aldrich at the highest level of purity possible. ^3H-SAM was purchase from American Radiolabeled Chemicals with a specific activity of 80 Ci/mmol. 384-well opaque white OptiPlates and SPA beads (Perkin Elmer, catalog # RPNQ0013) were purchased from PerkinElmer.
N-terminally GST-tagged MEKK2 (MAP3K2) protein corresponding to reference sequence AAF63496.3 was purchased from Life Technologies (catalog # PV4010). This protein was expressed in High Five insect cells and purified to >85% purity. Protein identity was confirmed by MS/MS analysis after proteolytic digestion. The protein sequence used was:
Full-length human SMYD3 isoform 1 (BAB86333) was inserted into a modified pET21b plasmid containing a His6 tag and TEV and SUMO cleavage sites.
E. coli (BL21 codonplus RIL strain, Stratagene) were transformed with plasmid pEPZ553 by mixing competent cells and plasmid DNA and incubating on ice for 30 minutes followed by heat shock at 42° C. for 1 minute and cooling on ice for 2 minutes. Transformed cells were grown and selected on LB agar with 100 μg/mL ampicillin and 17 μg/mL chloramphenicol at 37° C. overnight. A single clone was used to inoculate 200 mL of LB medium with 100 μg/mL ampicillin and 17 μg/mL chloramphenicol and incubated at 37° C. on an orbital shaker at 180 rpm. Once in log growth, the culture was diluted 1:100 into 2 L of LB medium and grown until OD600 was about 0.3 after which the culture was incubated at 15° C. and 160 rpm. Once OD600 reached about 0.4, IPTG was added to a final concentration of 0.1 mM and the cells were grown overnight at 15° C. and 160 rpm. Cells were harvested by centrifugation at 8000 rpm, for 4 minutes at 4° C. and stored at −80° C. for purification.
The column was washed with Buffer B (Buffer A plus 20 mM imidazole) and His-tagged SMYD3 was eluted with Buffer C (Buffer A plus 300 mM imidazole). The His tag, TEV and SUMO cleavage sites were removed generating native SMYD3 by addition of ULP1 protein at a ratio of 1:200 (ULP1:SMYD3). Imidazole was removed by dialysis overnight in Buffer A. The dialyzed solution was applied to a second Nickel column and the native SMYD3 protein was collected from the column flow-through. The flow-through was dialyzed in Buffer D (25 mM Tris, 5% glycerol, 5 mM β-mercaptoethanol, 50 mM NaCl, pH7.8) and ULP1 was removed using a Q sepharose fast flow column.
General Procedure for SMYD3 Enzyme Assays on MEKK2 Protein Substrate
The assays were all performed in a buffer consisting of 25 mM Tris-Cl pH 8.0, 1 mM TCEP, 0.005% BSG, and 0.005% Tween 20, prepared on the day of use. […] DMSO (1 ul) was added to Columns 11, 12, 23, 24, rows A-H for the maximum signal control and 1 ul of SAH, a known product and inhibitor of SMYD3, was added to columns 11, 12, 23, 24, rows I-P for the minimum signal control. A cocktail (40 ul) containing the SMYD3 enzyme was added by Multidrop Combi (Thermo-Fisher). The compounds were allowed to incubate with SMYD3 for 30 min at room temperature, then a cocktail (10 ul) containing SAM and MEKK2 was added to initiate the reaction (final volume=51 ul). […] The assays were stopped by the addition of non-radiolabeled SAM (10 ul) to a final concentration of 100 uM, which dilutes the ^3H-SAM to a level where its incorporation into MEKK2 is no longer detectable. Radiolabeled MEKK2 was detected using a scintillation proximity assay (SPA). 10 uL of a 10 mg/mL solution of SPA beads in 0.5 M citric acid was added and the plates centrifuged at 600 rpm for 1 min to precipitate the radiolabeled MEKK2 onto the SPA beads. The plates were then read in a PerkinElmer TopCount plate reader to measure the quantity of ^3H-labeled MEKK2 as disintegrations per minute (dpm) or alternatively, referred to as counts per minute (cpm).

For the molecule `N[C@@H](Cc1ccccc1)C(=O)N1CCC(NC(=O)c2cc(C3CC3)on2)CC1` [compound 1, N-(1-(L-phenylalanyl)piperidin-4-yl)-5-cyclopropylisoxazole-3-carboxamide], the IC50 (usually the concentration needed to halve the response being measured) was determined as 2.88 µM.

Regarding `N[C@H](Cc1c[nH]c2ccccc12)C(=O)N1CCC(NC(=O)c2cc(C3CC3)on2)CC1` [compound 2, N-(1-(D-tryptophyl)piperidin-4-yl)-5-cyclopropylisoxazole-3-carboxamide], the IC50 worked out at 15.5 µM. For `N[C@@H](Cc1ccc(O)cc1)C(=O)N1CCC(NC(=O)c2cc(C3CC3)on2)CC1` [compound 3, N-(1-(L-tyrosyl)piperidin-4-yl)-5-cyclopropylisoxazole-3-carboxamide], the IC50 worked out at 0.486 µM. In the case of `NCC(=O)N[C@@H](Cc1c[nH]c2ccccc12)C(=O)N1CCC(NC(=O)c2cc(C3CC3)on2)CC1` [compound 4, 5-cyclopropyl-N-(1-(glycyl-L-tryptophyl)piperidin-4-yl)isoxazole-3-carboxamide], the IC50 stood at 0.947 µM. Take `C[C@@H]1CC(NC(=O)c2cc(C3CC3)on2)CCN1C(=O)[C@@H](N)Cc1ccc(O)cc1` (stereo partly drawn) [compound 6, N-((2R)-1-(L-tyrosyl)-2-methylpiperidin-4-yl)-5-cyclopropylisoxazole-3-carboxamide]: the IC50 worked out at 2.97 µM.

Take `C[C@H]1CC(NC(=O)c2cc(C3CC3)on2)CCN1C(=O)[C@@H](N)Cc1ccc(O)cc1` (stereo partly drawn) [compound 7, N-((2S)-1-(L-tyrosyl)-2-methylpiperidin-4-yl)-5-cyclopropylisoxazole-3-carboxamide]: the IC50 was determined as 1.04 µM. Then `CN[C@@H](Cc1cn(C)c2ccccc12)C(=O)N1CCC(NC(=O)c2cc(C3CC3)on2)CC1` [compound 8, 5-cyclopropyl-N-(1-(Na,1-dimethyl-L-tryptophyl)piperidin-4-yl)isoxazole-3-carboxamide], with 1.2 µM; and `N[C@@H](Cc1ccc(O)c(Br)c1)C(=O)N1CCC(NC(=O)c2cc(C3CC3)on2)CC1` [compound 9, (S)-N-(1-(2-amino-3-(3-bromo-4-hydroxyphenyl)propanoyl)piperidin-4-yl)-5-cyclopropylisoxazole-3-carboxamide], with 0.214 µM; and `NC[C@H](Cc1ccccc1)C(=O)N1CCC(NC(=O)c2cc(C3CC3)on2)CC1` [compound 11, (S)-N-(1-(3-amino-2-benzylpropanoyl)piperidin-4-yl)-5-cyclopropylisoxazole-3-carboxamide], with 2.41 µM.

As for `N[C@H]1CC[C@H](C(=O)N2CCC(NC(=O)c3cc(C4CC4)on3)CC2)CC1` [compound 13, N-(1-((1r,4R)-4-aminocyclohexane-1-carbonyl)piperidin-4-yl)-5-cyclopropylisoxazole-3-carboxamide], the IC50 stood at 1.29 µM.

Regarding `N[C@@H](Cc1ccc(O)cc1)CN1CCC(NC(=O)c2cc(C3CC3)on2)CC1` [compound 14, (S)-N-(1-(2-amino-3-(4-hydroxyphenyl)propyl)piperidin-4-yl)-5-cyclopropylisoxazole-3-carboxamide], the IC50 is 4.59 µM. Then `O=C(NC1CCN(C(=O)C2CCNCC2)CC1)c1cc(C2CC2)on1` [compound 15, 5-cyclopropyl-N-(1-(piperidine-4-carbonyl)piperidin-4-yl)isoxazole-3-carboxamide], with 8.55 µM; and `CN1CCC(C(=O)N2CCC(NC(=O)c3cc(C4CC4)on3)CC2)CC1` [compound 16, 5-cyclopropyl-N-(1-(1-methylpiperidine-4-carbonyl)piperidin-4-yl)isoxazole-3-carboxamide], with 10 µM; and `O=C(NC1CCN(C(=O)CC2CCNCC2)CC1)c1cc(C2CC2)on1` [compound 17, 5-cyclopropyl-N-(1-(2-(piperidin-4-yl)acetyl)piperidin-4-yl)isoxazole-3-carboxamide], with 1.06 µM.

On to `CN1CCC(CC(=O)N2CCC(NC(=O)c3cc(C4CC4)on3)CC2)CC1` [compound 18, 5-cyclopropyl-N-(1-(2-(1-methylpiperidin-4-yl)acetyl)piperidin-4-yl)isoxazole-3-carboxamide], for which the IC50 came to 5.08 µM. In the case of `O=C(NC1CCN(C(=O)[C@@H](CO)Cc2ccccc2)CC1)c1cc(C2CC2)on1` [compound 19, (R)-N-(1-(2-benzyl-3-hydroxypropanoyl)piperidin-4-yl)-5-cyclopropylisoxazole-3-carboxamide] it was 30.9 µM; in that of `N[C@H]1C[C@H](C(=O)N2CCC(NC(=O)c3cc(C4CC4)on3)CC2)C1` [compound 20, N-(1-((1r,3r)-3-aminocyclobutane-1-carbonyl)piperidin-4-yl)-5-cyclopropylisoxazole-3-carboxamide], 5.77 µM.

Take `N[C@H]1C[C@@H](C(=O)N2CCC(NC(=O)c3cc(C4CC4)on3)CC2)C1` [compound 21, N-(1-((1s,3s)-3-aminocyclobutane-1-carbonyl)piperidin-4-yl)-5-cyclopropylisoxazole-3-carboxamide]: the IC50 amounted to 5.69 µM. In the case of `C[C@H]1CN(C(=O)[C@H]2CC[C@H](N)CC2)CCC1NC(=O)c1cc(C2CC2)on1` (stereo partly drawn) [compound 24, N-((3S)-1-((1r,4S)-4-aminocyclohexane-1-carbonyl)-3-methylpiperidin-4-yl)-5-cyclopropylisoxazole-3-carboxamide] it was 2 µM. For the molecule `C[C@@H]1CN(C(=O)[C@H]2CC[C@H](N)CC2)CCC1NC(=O)c1cc(C2CC2)on1` (stereo partly drawn) [compound 25, N-((3R)-1-((1r,4R)-4-aminocyclohexane-1-carbonyl)-3-methylpiperidin-4-yl)-5-cyclopropylisoxazole-3-carboxamide], the IC50 is 0.299 µM. Then `NC[C@@H](Cc1ccc(O)cc1)C(=O)N1CCC(NC(=O)c2cc(C3CC3)on2)CC1` [compound 26, (R)-N-(1-(3-amino-2-(4-hydroxybenzyl)propanoyl)piperidin-4-yl)-5-cyclopropylisoxazole-3-carboxamide], with 5.24 µM.

For `NC[C@H](Cc1ccc(O)cc1)C(=O)N1CCC(NC(=O)c2cc(C3CC3)on2)CC1` [compound 27, (S)-N-(1-(3-amino-2-(4-hydroxybenzyl)propanoyl)piperidin-4-yl)-5-cyclopropylisoxazole-3-carboxamide], the IC50 was found to be 0.342 µM. Then `NC[C@@H](Cc1ccc(O)c(I)c1)C(=O)N1CCC(NC(=O)c2cc(C3CC3)on2)CC1` [compound 28, (R)-N-(1-(3-amino-2-(4-hydroxy-3-iodobenzyl)propanoyl)piperidin-4-yl)-5-cyclopropylisoxazole-3-carboxamide], with 2.04 µM. For `O=C(NC1CCN(C[C@H](O)Cc2ccc(O)cc2)CC1)c1cc(C2CC2)on1` [compound 30, (R)-5-cyclopropyl-N-(1-(2-hydroxy-3-(4-hydroxyphenyl)propyl)piperidin-4-yl)isoxazole-3-carboxamide], the 50% inhibitory concentration (IC50) came out at 42.7 µM. Then `O=C(NC1CCN(C(=O)[C@@H](CO)Cc2ccc(O)c(I)c2)CC1)c1cc(C2CC2)on1` [compound 31, (R)-5-cyclopropyl-N-(1-(3-hydroxy-2-(4-hydroxy-3-iodobenzyl)propanoyl)piperidin-4-yl)isoxazole-3-carboxamide], with 5.1 µM. Then `C[C@H](N)CC(=O)NC[C@@H](Cc1ccc(O)c(I)c1)C(=O)N1CCC(NC(=O)c2cc(C3CC3)on2)CC1` [compound 32, N-(1-((R)-3-((S)-3-aminobutanamido)-2-(4-hydroxy-3-iodobenzyl)propanoyl)piperidin-4-yl)-5-cyclopropylisoxazole-3-carboxamide], with 4.11 µM.

(Values after patent publication US10577363B2, “Substituted piperidine compounds” (EPIZYME, INC., priority 2014, dated 2020).)
